Assay results from patent US12077501B2, “Compounds and compositions for intracellular delivery of agents” (ModernaTX, Inc., priority 2017, dated 2024).

How the values were obtained:
hEPO expression [1] = experiment: hEPO expression in CD-1 mice compared with MC3; assay type: in vivo; details: intravenous, 0.5 mpk, Table 7e
Source text: (§1) In contrast, hEPO expression in rats induced by administration of a nanoparticle composition including a compound according to one of formulae (I), (Ia1)-(Ia6), (Ib), (II), (IIa), (III), and (IIIa) was substantially […] than that measured for MC3. […] Tables 7c and 7d show additional protein expressions and clearance data from compositions with various compounds disclosed herein as compared to with MC3. Tables 7e, 7f and 7g show hEPO expression data in CD-1 mice at a dose of 0.5 mpk.

[2] = pKa of nanoparticle compositions; assay type: physicochemical; details: Table 1c
[3] = Particle size and polydispersity index of nanoparticle compositions (Zetasizer Nano ZS); assay type: physicochemical; details: Table 1c; nanoparticle compositions
Procedure: A Zetasizer Nano ZS (Malvem Instruments Ltd, Malvem, Worcestershire, UK) can be used to determine the particle size, the polydispersity index (PDI) and the zeta potential of the nanoparticle compositions in 1×PBS in determining particle size and 15 mM PBS in determining zeta potential.

[4] = Lipid clearance: % dose remaining in liver of CD-1 mice; assay type: in vivo; details: intravenous, 0.5 mg/kg, CD-1 mouse, Table 8a
Method in brief: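 Nanoparticle compositions of the disclosed lipids given intravenously and benchmarked against MC3. Protein expression reported as AUC (p/s*h) and clearance as % dose remaining in liver of CD-1 mice; hEPO expression in CD-1 mice measured at 0.5 mpk.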

[5] = Encapsulation efficiency of RNA (QUANT-IT RIBOGREEN RNA assay); assay type: physicochemical; details: Table 1c; nanoparticle compositions
Method in brief: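 Samples diluted to about 5 μg/mL RNA in TE buffer pH 7.5, treated with buffer or 2% Triton X-100 for 15 min at 37° C, then stained with RiboGreen (1:100). Fluorescence at about 480/520 nm, blank-subtracted; free RNA fraction is intact over Triton-disrupted signal.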

[6] = Lipid purity change after storage in EtOH for 96 h at 25 or 37 °C; assay type: physicochemical
Method in brief: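 Lipid stability was assessed as purity after storage in ethanol for 96 h at 25 °C or 37 °C.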

hEPO expression [7] = experiment: hEPO (miR126 + miR142) mRNA expression, Tables 8b-8e; assay type: in vivo; details: for AUC (mIU/mL*h): lipid:Chol:PEG 1 50:47.5:2.5, Table 8e
[8] = Lipid clearance: % dose remaining, Tables 7c and 8b-8e (species not given); assay type: in vivo
Source text: as §1

[9] = lipid:Chol:PEG 1 50:47.5:2.5, Table 8e

Row | pKa [2] | PDI [3] | Size (nm) [3] [nm] | % Dose Remaining 24 hr [4] [%] | EE (%) [5] [%] | Lipid % change purity in EtOH, 25° C., 96 h [6] [%] | Lipid % change purity in EtOH, 37° C., 96 h [6] [%] | % Dose Remaining (liver, 24 h) ([8]; Table 8b) [%] | % Dose Remaining (liver, 24 h) [8, 9] [%] | SMILES | AUC (p/s*h) CD-1 mice 0.5 mpk (hEPO expression [1]) [p/s*h] | AUC (hEPO expression [7]; Table 8b) [pg·h/mL] | AUC (mIU/mL*h) (hEPO expression [7])
1 | 6.64 | 0.23 | 77.2 | 38.43 | 98.1 | 2.6 | 9 |  |  | CCCCCCCCCN(CCCCCCCCC)CCN(CCCCCCCCC)CC(=O)N1CCC(CCOC(=O)CN(CCCCCCCCC)CCCCCCCCC)CC1 [Compound 114, 2-(1-(N-(2-(Dinonylamino)ethyl)-N-nonylglycyl)piperidin-4-yl)ethyl dinonylglycinate] | 7.86E+07 |  | 
2 | 5.01 | 0.16 | 66.0 | 82.18 | 97.0 | 43.1 | 59.5 |  |  | CCCCCCCCCN(CCCCCCCCC)CCN(CCCCCCCCC)CC(=O)OC1CCC(OC(=O)CN(CCCCCCCCC)CCCCCCCCC)CC1 (centres unmarked) [Compound 115, 4-((N-(2-(Dinonylamino)ethyl)-N-nonylglycyl)oxy)cyclohexyl dinonylglycinate] | 2.31E+06 |  | 
3 | 6.55 | 0.19 | 77.1 | 6.22 | 98.9 | 2.2 | 2 |  |  | CCCCCCCCCCCCCCN(CCCCCCCCCCCC(=O)OC)CCC1CCN(C(=O)CN(CCCCCCCCC)CCN(CCCCCCCCC)CCCCCCCCC)CC1 [Compound 116, Methyl 12-((2-(1-(N-(2-(dinonylamino)ethyl)-N-nonylglycyl)piperidin-4-yl)ethyl)(tetradecyl)amino)dodecanoate] | 1.01E+08 |  | 
4 | 6.71 | 0.20 | 84.6 | 2.03 | 95.2 | 2.9 | 4.7 |  |  | CCCCCCCCCCCCCCN(CCCCCCCCCCCC(=O)OC)CC(=O)N1CCN(C(=O)CN(CCCCCCCCC)CCN(CCCCCCCCC)CCCCCCCCC)CC1 [Compound 117, Methyl 12-((2-(4-(N-(2-(dinonylamino)ethyl)-N-nonylglycyl)piperazin-1-yl)-2-oxoethyl)(tetradecyl)amino)dodecanoate] | 6.91E+07 |  | 
5 | 6.49 | 0.21 | 78.7 | 9.32 | 99.0 | 0.8 | 2.9 |  |  | CCCCCCCCCCCCCCN(CCCCCCCC(=O)OCCCCC)CCC1CCCN(C(=O)CN(CCCCCCCCC)CCN(CCCCCCCCC)CCCCCCCCC)C1 (centres unmarked) [Compound 120, Pentyl 8-((2-(1-(N-(2-(dinonylamino)ethyl)-N-nonylglycyl)piperidin-3-yl)ethyl)(tetradecyl)amino)octanoate] | 4.17E+07 |  | 
6 | 6.50 | 0.22 | 75.7 | 13.97 | 98.6 | 0.3 | 1.5 |  |  | CCCCCCCCCCCCCCN(CCCCCC(=O)OCCCCCCC)CCC1CCCN(C(=O)CN(CCCCCCCCC)CCN(CCCCCCCCC)CCCCCCCCC)C1 (centres unmarked) [Compound 121, Heptyl 6-((2-(1-(N-(2-(dinonylamino)ethyl)-N-nonylglycyl)piperidin-3-yl)ethyl)(tetradecyl)amino)hexanoate] | 2.84E+07 |  | 
7 | 6.44 | 0.23 | 77.1 | 0.05 | 99.1 | 1 | 4.1 |  |  | CCCCCCCCCCCCCCN(CCCOC(=O)CCCCCCCCC)CCC1CCCN(C(=O)CN(CCCCCCCCC)CCN(CCCCCCCCC)CCCCCCCCC)C1 (centres unmarked) [Compound 122, 3-((2-(1-(N-(2-(Dinonylamino)ethyl)-N-nonylglycyl)piperidin-3-yl)ethyl)(tetradecyl)amino)propyl decanoate] | 5.71E+07 |  | 
8 | 6.94 | 0.21 | 92.7 | 5.60 | 99.2 | −4.6 | −3.5 |  |  | CCCCCCCCCCCCCCN(CCCCCCCC(=O)OCCCCC)CCC1CCN(C(=O)CN(CCCCCCCCC)CCN(CCCCCCCCC)CCCCCCCCC)C1 (centres unmarked) [Compound 124, Pentyl 8-((2-(1-(N-(2-(dinonylamino)ethyl)-N-nonylglycyl)pyrrolidin-3-yl)ethyl)(tetradecyl)amino)octanoate] | 3.88E+07 |  | 
9 | 6.76 | 0.24 | 87.0 | 0.09 | 98.7 | 0.6 | 2.2 |  |  | CCCCCCCCCCCCCCN(CCCOC(=O)CCCCCCCCC)CCC1CCN(C(=O)CN(CCCCCCCCC)CCN(CCCCCCCCC)CCCCCCCCC)C1 (centres unmarked) [Compound 126, 3-((2-(1-(N-(2-(Dinonylamino)ethyl)-N-nonylglycyl)pyrrolidin-3-yl)ethyl)(tetradecyl)amino)propyl decanoate] | 6.24E+07 |  | 
10 | 6.81 | 0.20 | 79.8 | 0.86 | 99.5 | 2.7 | 2.9 |  |  | CCCCCCCCCCCCCCN(CCCCCCCCCCCC(=O)OC)CCC1CCN(C(=O)CN(CCCCCCCCC)CCN(CCCCCCCCC)CCCCCCCCC)C1 (centres unmarked) [Compound 127, Methyl 12-((2-(1-(N-(2-(dinonylamino)ethyl)-N-nonylglycyl)pyrrolidin-3-yl)ethyl)(tetradecyl)amino)dodecanoate] | 3.45E+07 |  | 
11 | 4.93 | 0.20 | 68.0 | 52.19 | 97.1 | 6.9 | 12.2 |  |  | CCCCCCCCCN(CCCCCCCCC)CCOC(=O)C1CCC(C(=O)OCCN(CCCCCCCCC)CCN(CCCCCCCCC)CCCCCCCCC)CC1 (centres unmarked) [Compound 128, 1-(2-(Dinonylamino)ethyl) 4-(2-((2-(dinonylamino)ethyl)(nonyl)amino)ethyl) cyclohexane-1,4-dicarboxylate] | 3.04E+05 |  | 
12 |  |  |  |  |  |  |  | 81.04 |  | CCCCCCCCCCN(CCCCCCCCCC)CCCC(=O)N1CCN(C(=O)CCCN(CCCCCCCCCC)CCCCCCCCCC)CC1 [Compound 146, 1,1′-(Piperazine-1,4-diyl)bis(4-(didecylamino)butan-1-one)] |  | 1.27e+07 | 
13 | 7.46 | 0.18 | 77.4 | 75.96 | 98.8 | −0.7 | 2.1 |  |  | CCCCCCCCCN(CCCCCCCCC)CCN(CCCCCCCCC)CC(=O)N(C)CCN(C)C(=O)CN(CCCCCCCCC)CCCCCCCCC [Compound 151, 2-(Dinonylamino)-N-(2-(2-((2-(dinonylamino)ethyl)(nonyl)amino)-N-methylacetamido)ethyl)-N-methylacetamide] | 1.54E+08 |  | 
14 | 7.48 | 0.16 | 79.1 | 34.01 | 98.5 | 0 | 2 |  |  | CCCCCCCCCN(CCCCCCCCC)CCN(CCCCCCCCC)CC(=O)N(C)CCN(C)C(=O)CN(CCCCCCCCC)CCCC(=O)OCCCCC [Compound 152, Pentyl 8,11-dimethyl-5,14,17-trinonyl-7,12-dioxo-5,8,11,14,17-pentaazahexacosanoate] | 1.09E+08 |  | 
15 |  |  |  |  |  |  |  |  | 8.55 | CCCCCCCCCOC(=O)CCCCCCCN(CCCCCCCC(=O)OCCCCCCCCC)CCOCCOCCN(CCCCCCCCC)CCCCCCCCC [Compound 173, Nonyl 18-nonyl-9-(8-(nonyloxy)-8-oxooctyl)-12,15-dioxa-9,18-diazaheptacosanoate] |  |  | 6.70E+06
16 |  |  |  |  |  |  |  |  | 30.05 | CCCCCCCCCOC(=O)CCCCCCCN(CCCCCCCC(=O)OC(CCCCCCCC)CCCCCCCC)CCOCCOCCN(CCCCCCCCC)CCCCCCCCC [Compound 174, Heptadecan-9-yl 18-nonyl-9-(8-(nonyloxy)-8-oxooctyl)-12,15-dioxa-9,18-diazaheptacosanoate] |  |  | 5.03E+07
